Columns and labels:
TTR [1] = assay: TTR editing in HepG2 cells transfected with Spy Cas9 mRNA and dgRNAs (Table 6); assay type: cell-based, human; details: HepG2 cells co-transfected with Spy Cas9 mRNA (SEQ ID NO:2) and dgRNAs
Protocol: HepG2 cell line. The human hepatocellular carcinoma cell line HepG2 (American Type Culture Collection, Cat. HB-8065) was cultured in DMEM media supplemented with 10% fetal bovine serum. Cells were counted and plated on Bio-coat collagen I coated 96-well plates (ThermoFisher, Cat. 877272) at a density of 10,000 cells/well in a 96-well plate 24 hours prior to transfection. Cells were transfected with Lipofectamine 2000 (ThermoFisher, Cat. 11668019) per the manufacturer's protocol. Cells were sequentially transfected with lipoplex containing Spy Cas9 mRNA (100 ng), Lipofectamine 2000 (0.2 μL/well) and OptiMem followed by a separate lipoplex containing individual crRNA (25 nM), tracer RNA (25 nM), Lipofectamine 2000 (0.2 μL/well) and OptiMem.
(§1) Transfected cells were harvested post-transfection at 24, 48, or 72 hours. The genomic DNA was extracted from each well of a 96-well plate using 50 μL/well BuccalAmp DNA Extraction solution (Epicentre, Cat. QE09050) per manufacturer's protocol. All DNA samples were subjected to PCR and subsequent NGS analyses, as described herein.
(§2) To quantitatively determine the efficiency of editing at the target location in the genome, sequencing was utilized to identify the presence of insertions and deletions introduced by gene editing.
(§3) Primers were designed around the target site within the gene of interest (e.g. TTR), and the genomic area of interest was amplified.
(§4) Additional PCR was performed per the manufacturer's protocols (Illumina) to add chemistry for sequencing. The amplicons were sequenced on an Illumina MiSeq instrument. The reads were aligned to a reference genome (e.g., the human reference genome (hg38), the cynomologus reference genome (mf5), the rat reference genome (rn6), or the mouse reference genome (mm10)) after eliminating those having low quality scores. The resulting files containing the reads were mapped to the reference genome (BAM files), where reads that overlapped the target region of interest were selected and the number of wild type reads versus the number of reads which contain an insertion, substitution, or deletion was calculated.
(§5) The editing percentage (e.g., the “editing efficiency” or “percent editing” or “indel frequency”) is defined as the total number of sequence reads with insertions/deletions (“indels”) or substitutions over the total number of sequence reads, including wild type.
(§6) Guides in dgRNA format targeting human TTR and the cynomologus matched sequences were delivered to HEK293 Cas9, HUH7 and HepG2 cell lines, as well as primary human hepatocytes and primary cynomolgus monkey hepatocytes as described in Example 1. Percent editing was determined for crRNAs comprising each guide sequence across each cell type and the guide sequences were then rank ordered based on highest % edit. The screening data for the guide sequences in Table 1 in all five cell lines are listed below (Table 4 through 11).

TTR [2] = assay: TTR editing in primary human hepatocytes transfected with Spy Cas9 protein (RNP) loaded with dgRNAs (Table 8); assay type: cell-based; details: dgRNA transfected with Spy Cas9 protein (RNP)
Protocol: (§7) Primary liver hepatocytes. Primary human liver hepatocytes (PHH) and primary cynomolgus liver hepatocytes (PCH) (Gibco) were cultured per the manufacturer's protocol (Invitrogen, protocol 11.28.2012). In brief, the cells were thawed and resuspended in hepatocyte thawing medium with supplements (Gibco, Cat. CM7000) followed by centrifugation at 100 g for 10 minutes for human and 80 g for 4 minutes for cyno. The supernatant was discarded and the pelleted cells resuspended in hepatocyte plating medium plus supplement pack (Invitrogen, Cat. A1217601 and CM3000). Cells were counted and plated on Bio-coat collagen I coated 96-well plates (ThermoFisher, Cat. 877272) at a density of 33,000 cells/well for human or 60,000 cells/well for cyno (or 65,000 cells/well when assaying effects on TTR protein, described further below). Plated cells were allowed to settle and adhere for 6 or 24 hours in a tissue culture incubator at 37° C. and 5% CO2 atmosphere. After incubation cells were checked for monolayer formation and media was replaced with hepatocyte culture medium with serum-free supplement pack (Invitrogen, Cat. A1217601 and CM4000).
(§8) […] formation was performed prior to electroporation or transfection of Spy Cas9 protein loaded with guide RNAs (RNPs) onto cells. For dual guide (dgRNAs), individual crRNA and trRNA was pre-annealed by mixing equivalent amounts of reagent and incubating at 95° C. for 2 min and cooling to room temperature. Single guide (sgRNAs) were boiled at 95° C. for 2 min and cooling to room temperature. The boiled dgRNA or sgRNA was incubated with Spy Cas9 protein in Optimem for 10 minutes at room temperature to form a ribonucleoprotein (RNP) complex.
For RNP lipoplex transfections, cells were transfected with Lipofectamine RNAiMAX (ThermoFisher, Cat. 13778150) per the manufacturer's protocol. Cells were transfected with an RNP containing Spy Cas9 (10 nM), individual guide (10 nM), tracer RNA (10 nM), Lipofectamine RNAiMAX (1.0 μL/well) and OptiMem. RNP formation was performed as described above.
as §1, §2, §3, §4, §5
Guides in dgRNA format targeting human TTR and the cynomologus matched sequences were delivered to HEK293 Cas9, HUH7 and HepG2 cell lines, as well as primary human hepatocytes and primary cynomolgus monkey hepatocytes as described in Example 1. […]

TTR [3] = assay: TTR editing in primary cyno hepatocytes electroporated with Spy Cas9 protein and dgRNAs (Tables 10, 11); assay type: cell-based, cynomolgus monkey
Protocol: as §7, §8
(§9) For RNP electroporation into primary human and cyno hepatocytes, the cells are thawed and resuspended in Lonza electroporation Primary Cell P3 buffer at a concentration of 2500 cells per μL for human hepatocytes and 3500 cells per μL for cyno hepatocytes. A volume of 20 μL of resuspended cells and 5 μL of RNP are mixed together per guide. 20 μL of the mixture is placed into a Lonza electroporation plate. The cells were electroporated using the Lonza nucleofector with the preset protocol EX-147. Post electroporation, the cells are transferred into a Biocoat plate containing pre-warmed maintenance media and placed in a tissue culture incubator at 37° C. and 5% CO2.
as §1, §2, §3, §4
(§10) The editing percentage (e.g., the “editing efficiency” or “percent editing” or “indel frequency”) is defined as the total number of sequence reads with insertions/deletions (“indels”) or substitutions over the total number of sequence reads, including wild type. […]

TTR [4] = assay: TTR editing in primary human hepatocytes transfected with Spy Cas9 mRNA and dgRNAs (Table 9); assay type: cell-based; details: dgRNA co-transfected with Spy Cas9 mRNA (SEQ ID NO:2)
Protocol: as §7
Lipofectamine RNAiMax (ThermoFisher, Cat. 13778150) based transfections were conducted as per the manufacturer's protocol. Cells were sequentially transfected with a lipoplex containing Spy Cas9 mRNA (100 ng), Lipofectamine RNAiMax (0.4 μL/well) and OptiMem followed by a separate lipoplex containing crRNA (25 nM) and tracer RNA (25 nM) or sgRNA (25 nM), Lipofectamine RNAiMax (0.4 μL/well) and OptiMem.
as §1, §2, §3, §4, §5, §6

TTR [5] = assay: TTR editing in primary human hepatocytes electroporated with Spy Cas9 protein loaded with dgRNAs (Table 7); assay type: cell-based; details: dgRNA electroporated with Spy Cas9 protein (RNP)
Protocol: as §7, §8, §9, §1, §2, §3, §4, §10

off-target genomic sites = assay: Off-target oligo insertion based assay in HEK293_Cas9 cells, dgRNAs and sgRNAs (Tables 23, 24); assay type: cell-based, human; details: Table 23; TTR dgRNAs in HekCas9 cells, oligo insertion based assay
Protocol: An oligo insertion based assay (See, e.g., Tsai et al., Nature Biotechnology 33, 187-197; 2015) was used to determine potential off-target genomic sites cleaved by Cas9 targeting TTR. Forty-five dgRNAs from Table 1 (and two control guides with known off-target profiles) were screened in the HEK293 Cas9 cells. The human embryonic kidney adenocarcinoma cell line HEK293 constitutively expressing Spy Cas9 (“HEK293_Cas9”) was cultured in DMEM media supplemented with 10% fetal bovine serum and 500 μg/ml G418. Cells were plated at a density of 30,000 cells/well in a 96-well plate 24 hours prior to transfection. Cells were transfected with Lipofectamine RNAiMAX (ThermoFisher, Cat. 13778150) per the manufacturer's protocol. Cells were transfected with a lipoplex containing individual crRNA (15 nM), trRNA (15 nM), and donor oligo with (10 nM) Lipofectamine RNAiMAX (0.3 μL/well) and OptiMem. Cells were lysed 24 hours post transfection and genomic DNA was extracting using Zymo's Quick gDNA 96 Extraction kit (catalog #D3012) following the manufacturer's recommended protocol. The gDNA was quantified using the Qubit High Sensitivity dsDNA kit (Life Technologies). Libraries were prepared per the previously described method in Tsai et al, 2015 with minor modifications. Sequencing was performed on Illumina's MiSeq and HiSeq 2500. The assay identified potential off-target sites for some of the crRNAs which are plotted in FIG. 2.
Additionally, a subset of the guides was assessed for off-target potential as modified sgRNAs in the Hek_Cas9 cells via the oligo based insertion method described above. The off-target results were plotted in FIG. 4.

[6] = Table 10, primary cyno hepatocytes electroporated with Spy Cas9 protein (RNP) and dgRNAs
[7] = primary cyno hepatocytes electroporated with Spy Cas9 protein (RNP) and cyno specific dgRNAs

| Sequence | Avg % Deletion (TTR [1]) [%] | Avg % Edit (TTR [1]) [%] | Avg % Insert (TTR [1]) [%] | Avg % Deletion (TTR [2]) [%] | Avg % Edit (TTR [2]) [%] | Avg % Insert (TTR [2]) [%] | Avg % Deletion (TTR [3]; [6]) [%] | Avg % Edit (TTR [3]; [6]) [%] | Avg % Insert (TTR [3]; [6]) [%] | Avg % Deletion (TTR [4]) [%] | Avg % Edit (TTR [4]) [%] | Avg % Insert (TTR [4]) [%] | Avg % Deletion (TTR [5]) [%] | Avg % Edit (TTR [5]) [%] | Avg % Insert (TTR [5]) [%] | # Sites (off-target integration sites detected) (off-target genomic sites) | Avg % Deletion (TTR [3]; [7]) [%] | Avg % Edit (TTR [3]; [7]) [%] | Avg % Insert (TTR [3]; [7]) [%] |
| --- | --- | --- | --- | --- | --- | --- | --- | --- | --- | --- | --- | --- | --- | --- | --- | --- | --- | --- | --- |
| UGUCUGUCUUCUCUCAUAGG (tested as dual guide RNA, chemistry not given here) [CR005307] | 14.33 | 22.03 | 7.70 | 8.55 | 18.73 | 10.18 | 2.55 | 4.56 | 2.01 | 9.30 | 12.90 | 3.67 | 3.00 | 8.17 | 5.20 |  |  |  |  |
| AGCCGUGGUGGAAUAGGAGU (tested as dual guide RNA, chemistry not given here) [CR005299] | 2.30 | 38.61 | 36.32 | 0.58 | 19.37 | 18.79 | 0.26 | 13.48 | 13.23 | 0.60 | 9.43 | 8.93 | 0.35 | 8.65 | 8.30 |  |  |  |  |
| UCCACUCAUUCUUGGCAGGA (tested as dual guide RNA, chemistry not given here) [CR005298] | 21.36 | 42.65 | 21.29 | 10.95 | 32.07 | 21.12 |  |  |  | 11.60 | 15.70 | 4.13 | 17.57 | 39.90 | 22.37 | 0 |  |  |  |
| ACUUGUCUUCUCUAUACCCA (tested as dual guide RNA, chemistry not given here) [CR005370] |  |  |  |  |  |  |  |  |  |  |  |  |  |  |  |  | 62.93 | 63.52 | 0.59 |
| AUACCAGUCCAGCGAGGCAG (tested as dual guide RNA, chemistry not given here) [CR005366] |  |  |  |  |  |  |  |  |  |  |  |  |  |  |  |  | 76.67 | 77.00 | 0.33 |
| CCAGUCCAGCGAGGCAGAGG (tested as dual guide RNA, chemistry not given here) [CR005367] |  |  |  |  |  |  |  |  |  |  |  |  |  |  |  |  | 50.26 | 50.79 | 0.53 |
| AAAGUUCUAGAUGCCGUCCG (tested as dual guide RNA, chemistry not given here) [CR005369] |  |  |  |  |  |  |  |  |  |  |  |  |  |  |  |  | 33.92 | 42.01 | 8.09 |
| CCUCCUCUGCCUCGCUGGAC (tested as dual guide RNA, chemistry not given here) [CR005368] |  |  |  |  |  |  |  |  |  |  |  |  |  |  |  |  | 27.27 | 27.60 | 0.33 |
| AAGUGACUUCCAGUAAGAUU (tested as dual guide RNA, chemistry not given here) [CR005371] |  |  |  |  |  |  |  |  |  |  |  |  |  |  |  |  | 8.10 | 8.42 | 0.31 |
| AAAGGCUGCUGAUGAGACCU (tested as dual guide RNA, chemistry not given here) [CR005364] |  |  |  |  |  |  |  |  |  |  |  |  |  |  |  |  | 27.11 | 27.70 | 0.58 |
| ACACAAAUACCAGUCCAGCG (tested as dual guide RNA, chemistry not given here) [CR000689] |  |  |  |  |  |  |  |  |  |  |  |  |  |  |  |  | 6.30 | 24.41 | 18.11 |
| UAUAGGAAAACCAGUGAGUC (tested as dual guide RNA, chemistry not given here) [CR005305] | 1.21 | 13.51 | 12.30 | 0.34 | 7.07 | 6.73 | 0.15 | 11.28 | 11.13 | 1.60 | 7.53 | 5.93 | 0.40 | 3.83 | 3.53 |  |  |  |  |

Reference: US11795460B2, “Compositions and methods for TTR gene editing and treating ATTR amyloidosis” (Intellia Therapeutics, Inc., priority 2017, dated 2023)
